# Test results taken from patent US20130065818A1, “Arylamide Compounds And Compositions And Uses Thereof” (POLYMEDIX, priority 2006, published 2013).
# Where two headings read alike, the source gives them in different places.
# Experiments:
# Type in all cases: cell-based
# [1] = test system: Staphylococcus aureus fluoroquinolone-susceptible; test: MIC, 25 ocular isolates, broth microdilution (Example 8)
# Procedure: • Mueller-Hinton Broth in tubes was inoculated with 25 ocular isolates of Staphylococcus aureus fluoroquinolone-susceptible, Staphylococcus aureus fluoroquinolone-resistant, Staphylococcus epidermidis (Coagulase-negative Staphylococcus) fluoroquinolone-susceptible, Staphylococcus epidermidis (Coagulase-negative Staphylococcus) fluoroquinolone-resistant, Pseudomonas aeruginosa and Serratia marcescens, plus two controls (Staphylococcus aureus and E. coli) and incubated at 37° C. overnight on a shaker set at 250 rpm.
# (§1) On the day of testing, a 640 μg/ml (1280 μg/ml for Serratia marcescens and Pseudomonas aeruginosa) concentration was prepared from a 1% stock solution in 0.01% acetic acid, 0.2% BSA in polypropylene tubes.
# (§2) Serial doubling dilutions in 0.01% acetic acid, 0.2% BSA in 96 well polypropylene plates, which are used as reservoirs for the inoculation of the test plates, were carried out to obtain serial dilutions of test agents at 10 times the required test concentrations: 640, 320, 160, 80, 40, 20, 10, 5, 2.5, 1.25, and 0.625 μg/ml (1280, 640, 320, 160, 80, 40, 20, 10, 5, 2.5, and 1.25 μg/ml for Serratia marcescens and Pseudomonas aeruginosa).
# (§3) Ten μl of diluted 10×test agents was added to each well of one row of the 96 well polypropylene plates from column 2 to column 12 (column 1 is a control for bacteria alone, with no peptide). Test agent concentrations in columns 2-12 were as follows: 64, 32, 16, 8, 4, 2, 1, 0.5, 0.25, 0.125, and 0.0625 μg/ml (128, 64, 32, 16, 8, 4, 2, 1, 0.5, 0.25, and 0.125 μg/ml for Serratia marcescens and Pseudomonas aeruginosa). The same peptide was in each of the 8 rows. One plate contained dilutions of one test agent and 8 bacterial isolates.
# On the day of testing, the overnight bacterial broth cultures of Staphylococcus aureus fluoroquinolone-susceptible, Staphylococcus aureus fluoroquinolone-resistant, Staphylococcus epidermidis (Coagulase-negative Staphylococcus) fluoroquinolone-susceptible, Staphylococcus epidermidis (Coagulase-negative Staphylococcus) fluoroquinolone-resistant, Serratia marcescens, and Pseudomonas aeruginosa, plus two controls (Staphylococcus aureus and E. coli) were diluted in 5 ml of trypticase soy broth to yield turbidity equal to a 0.5 McFarland standard. The final inoculum for MIC testing for Staphylococcus aureus fluoroquinolone-susceptible, Staphylococcus aureus fluoroquinolone-resistant, Staphylococcus epidermidis (Coagulase-negative Staphylococcus) fluoroquinolone-susceptible, Staphylococcus epidermidis (Coagulase-negative Staphylococcus) fluoroquinolone-resistant, Serratia marcescens, and Pseudomonas aeruginosa was achieved by placing 0.05 ml of the turbidity adjusted sample to 5 ml of Mueller-Hinton broth.
# (§4) Ninety μl of the bacterial suspensions was dispensed in each well from column 1 to column 12. Each bacterial isolate was placed in one row of a 96 well polypropylene plate containing the test agents. The plates were placed on shaker at 15 minutes at room temperature, and then incubated at 37° C. overnight. MICs were determined visually as the lowest concentration of drug that inhibits visible bacterial growth.
# [2] = test system: Streptococcus pneumoniae; test: as above
# Procedure: Mueller-Hinton Broth supplemented with 2% lysed horse blood in tubes was inoculated with 25 ocular isolates of Streptococcus pneumoniae, Streptococcus viridans group, and Moraxella species (including Moraxella catarrhalis) plus two controls (Staphylococcus aureus and E. coli) and incubated at 37° C. overnight. Additionally, Mueller-Hinton Broth in tubes was inoculated with two controls (Staphylococcus aureus and E. coli) and incubated at 37° C. overnight on a shaker set at 250 rpm.
# as §1, §2, §3
# On the day of testing, the overnight bacterial broth cultures of Streptococcus pneumoniae, Streptococcus viridans and Moraxella species (including Moraxella catarrhalis) plus two controls (Staphylococcus aureus and E. coli) were diluted in 5 ml of trypticase soy broth to yield turbidity equal to a 0.5 McFarland standard. The final inoculum for MIC testing for Streptococcus pneumoniae, Streptococcus viridans and Moraxella species (including Moraxella catarrhalis) was achieved by placing 0.1 ml of the turbidity adjusted sample to 5 ml of Mueller-Hinton broth containing 2% lysed horse red blood cells.
# as §4
# [3] = test system: E. faecalis ATCC 29212; test: MIC, laboratory strains (Example 8)
structure (smiles),measurement,setting,value
N=C(N)NCCCCC(=O)Nc1cc(C(F)(F)F)cc(NC(=O)c2cnc(C(=O)Nc3cc(C(F)(F)F)cc(NC(=O)CCCCNC(=N)N)c3SCCN)cn2)c1SCCN [Oligomer 5],MIC50,"[1]; 25 isolates, Row 13",0.25 µg/mL
same,MIC90,"[1]; 25 isolates, Row 22",0.25 µg/mL
same,Range of MICs,"[1]; 25 isolates, Summary of Results",0.125 to 0.5 µg/mL
same,MIC,"[1]; Staphylococcus aureus, 25 ocular isolates, read-out: Median MIC",≤ 0.25 µg/mL
same,MIC,"[1]; Staphylococcus aureus, isolate 1—E402, read-out: MIC",0.5 µg/mL
same,MIC,"[1]; Staphylococcus aureus, isolate 2—E1512, read-out: MIC",0.25 µg/mL
same,MIC,"[1]; Staphylococcus aureus, isolate 3—E253, read-out: MIC",0.25 µg/mL
same,MIC,"[1]; Staphylococcus aureus, isolate 4—K1518, read-out: MIC",0.125 µg/mL
same,MIC,"[1]; Staphylococcus aureus, isolate 5—K1525, read-out: MIC",0.125 µg/mL
same,MIC,"[1]; Staphylococcus aureus, isolate 6—K1663, read-out: MIC",0.125 µg/mL
same,MIC,"[1]; Staphylococcus aureus, isolate 7—K1648, read-out: MIC",0.125 µg/mL
same,MIC,"[1]; Staphylococcus aureus, isolate 8—K1646, read-out: MIC",0.25 µg/mL
same,MIC,"[1]; Staphylococcus aureus, isolate 9—K1642, read-out: MIC",0.25 µg/mL
same,MIC,"[1]; Staphylococcus aureus, isolate 10—K1638, read-out: MIC",0.25 µg/mL
same,MIC,"[1]; Staphylococcus aureus, isolate 11—K1628, read-out: MIC",0.25 µg/mL
same,MIC,"[1]; Staphylococcus aureus, isolate 12—K1618, read-out: MIC",0.125 µg/mL
same,MIC,"[1]; Staphylococcus aureus, isolate 13—K1617, read-out: MIC",0.25 µg/mL
same,MIC,"[1]; Staphylococcus aureus, isolate 14—K1611, read-out: MIC",0.25 µg/mL
same,MIC,"[1]; Staphylococcus aureus, isolate 15—K1607, read-out: MIC",0.25 µg/mL
same,MIC,"[1]; Staphylococcus aureus, isolate 16—K1600, read-out: MIC",0.125 µg/mL
same,MIC,"[1]; Staphylococcus aureus, isolate 17—K1591, read-out: MIC",0.5 µg/mL
same,MIC,"[1]; Staphylococcus aureus, isolate 18—K1585, read-out: MIC",0.25 µg/mL
same,MIC,"[1]; Staphylococcus aureus, isolate 19—K1583, read-out: MIC",0.25 µg/mL
same,MIC,"[1]; Staphylococcus aureus, isolate 20—K1574, read-out: MIC",0.25 µg/mL
same,MIC,"[1]; Staphylococcus aureus, isolate 21—K1566, read-out: MIC",0.25 µg/mL
same,MIC,"[1]; Staphylococcus aureus, isolate 22—K1551, read-out: MIC",0.125 µg/mL
same,MIC,"[1]; Staphylococcus aureus, isolate 23—K1545, read-out: MIC",0.25 µg/mL
same,MIC,"[1]; Staphylococcus aureus, isolate 24—K1540, read-out: MIC",0.25 µg/mL
same,MIC,"[1]; Staphylococcus aureus, isolate 25—K1530, read-out: MIC",0.5 µg/mL
same,MIC,"[1]; Staphylococcus aureus, n=25 per group, read-out: Median MIC",0.25 µg/mL
same,MIC50,"[1]; Staphylococcus aureus, 25 isolates, Summary of Results, read-out: MIC50",0.25 µg/mL
same,MIC90,"[1]; Staphylococcus aureus, 25 isolates, Summary of Results, read-out: MIC90",0.5 µg/mL
same,MIC,"[1]; Staphylococcus aureus, 25 isolates, Summary of Results, read-out: Median MIC",0.25 µg/mL
same,MIC50,[1]; n=25 per group,0.25 µg/mL
same,MIC90,[1]; n=25 per group,0.5 µg/mL
same,Range of MICs,[1]; n=25 per group,0.125 to 0.5 µg/mL
same,MIC50,"[2]; 25 isolates, Row 13",4 µg/mL
same,MIC90,"[2]; 25 isolates, Row 22",16 µg/mL
same,Range of MICs,"[2]; 25 isolates, Summary of Results, >64 was Replaced with 128",4 to 128 µg/mL
same,MIC,"[2]; Streptococcus pneumoniae, 25 ocular isolates, Mueller-Hinton broth with 2% lysed horse red blood cells, read-out: Median MIC",≤ 4 µg/mL
same,MIC,"[2]; Streptococcus pneumoniae, isolate 1—B1386, read-out: MIC",> 64 µg/mL
same,MIC,"[2]; Streptococcus pneumoniae, isolate 2—B1380, read-out: MIC",4 µg/mL
same,MIC,"[2]; Streptococcus pneumoniae, isolate 3—B1378, read-out: MIC",0.5 µg/mL
same,MIC,"[2]; Streptococcus pneumoniae, isolate 4—B1377, read-out: MIC",8 µg/mL
same,MIC,"[2]; Streptococcus pneumoniae, isolate 5—B1373, read-out: MIC",8 µg/mL
same,MIC,"[2]; Streptococcus pneumoniae, isolate 6—B1367, read-out: MIC",16 µg/mL
same,MIC,"[2]; Streptococcus pneumoniae, isolate 7—B1355, read-out: MIC",8 µg/mL
same,MIC,"[2]; Streptococcus pneumoniae, isolate 8—B1353, read-out: MIC",4 µg/mL
same,MIC,"[2]; Streptococcus pneumoniae, isolate 9—B1351, read-out: MIC",1 µg/mL
same,MIC,"[2]; Streptococcus pneumoniae, isolate 10—B1339, read-out: MIC",2 µg/mL
same,MIC,"[2]; Streptococcus pneumoniae, isolate 11—B1337, read-out: MIC",1 µg/mL
same,MIC,"[2]; Streptococcus pneumoniae, isolate 12—B1335, read-out: MIC",1 µg/mL
same,MIC,"[2]; Streptococcus pneumoniae, isolate 13—B1334, read-out: MIC",1 µg/mL
same,MIC,"[2]; Streptococcus pneumoniae, isolate 14—B1333, read-out: MIC",1 µg/mL
same,MIC,"[2]; Streptococcus pneumoniae, isolate 15—B1255, read-out: MIC",1 µg/mL
same,MIC,"[2]; Streptococcus pneumoniae, isolate 16—B1288, read-out: MIC",8 µg/mL
same,MIC,"[2]; Streptococcus pneumoniae, isolate 17—B1287, read-out: MIC",16 µg/mL
same,MIC,"[2]; Streptococcus pneumoniae, isolate 18—B1272, read-out: MIC",1 µg/mL
same,MIC,"[2]; Streptococcus pneumoniae, isolate 19—B1264, read-out: MIC",1 µg/mL
same,MIC,"[2]; Streptococcus pneumoniae, isolate 20—B1252, read-out: MIC",16 µg/mL
same,MIC,"[2]; Streptococcus pneumoniae, isolate 21—B1245, read-out: MIC",2 µg/mL
same,MIC,"[2]; Streptococcus pneumoniae, isolate 22—B1211, read-out: MIC",8 µg/mL
same,MIC,"[2]; Streptococcus pneumoniae, isolate 23—B1213, read-out: MIC",16 µg/mL
same,MIC,"[2]; Streptococcus pneumoniae, isolate 24—B1208, read-out: MIC",8 µg/mL
same,MIC,"[2]; Streptococcus pneumoniae, isolate 25—B1214, read-out: MIC",4 µg/mL
same,MIC,"[2]; Streptococcus pneumoniae, n=25 per group, read-out: Median MIC",4 µg/mL
same,MIC50,"[2]; Streptococcus pneumoniae, 25 isolates, Summary of Results, read-out: MIC50",4 µg/mL
same,MIC90,"[2]; Streptococcus pneumoniae, 25 isolates, Summary of Results, read-out: MIC90",16 µg/mL
same,MIC,"[2]; Streptococcus pneumoniae, 25 isolates, Summary of Results, read-out: Median MIC",4 µg/mL
same,MIC50,[2]; n=25 per group,4 µg/mL
same,MIC90,[2]; n=25 per group,16 µg/mL
same,Range of MICs,[2]; n=25 per group,4 to 128 µg/mL
same,MIC,[3],1.56 µg/mL
